Tests used:
HIV-1 protease = target: T1, HIV-1 protease (Human immunodeficiency virus type 1 group M subtype B, UniProt P12497); assay: protease assay (Abz-HIV Protease Substrate FRET); format: biochemical
T1 construct: A 50 μM stock HIV-1 protease (received from Sook-kyung Lee (UNC)); gift from Sook-kyung Lee (UNC)
Protocol: (§1) For the assays listed in Table I, the integrase assay was conducted using the XpressBio HIV-1 Integrase Assay Kit according to the manufacture's protocol. The protease assay was conducted with the Anthranilyl (Abz)-HIV Protease Substrate (Bachem H-2992), a hexapeptide FRET substrate derived from the p24/p15 cleavage site of the viral gag-pol poly-protein, which allows the screening of potential HIV protease inhibitors. 1 mM Abz-Substrate was diluted with Assay Buffer to a working stock of 20 μM. A 50 μM stock HIV-1 protease (received from Sook-kyung Lee (UNC)) was diluted with Assay Buffer (50 mM HEPES, pH 6.8, 150 mM NaCl, and 1% DMSO) to a working stock of 100 nM. 2 μl 100 nM HIV-1 Protease along with 2 uL 20 μM Abz Substrate was added into each well and incubated at room temperature (avoiding light) for 1 hour before being read on an Envision plate reader (Perkin Elmer) excitation at 280 nm, emission at >435 nm. The reverse transcriptase assay utilized purified recombinant HIV (pNL4-3) heterodimeric (p66/p51) Reverse Transcriptase (RT) that was purchased from a commercially available source. The assay was performed in 96-well filter plate, where RT activity was determined by the incorporation of radiolabeled deoxyribonucleotides into the newly synthesized DNA strand. The RT reaction mixture contained in vitro transcribed viral RNA derived from the HIV-1NL4-3 5′-LTR region (position 454 to 652) and primer that is complementary to the primer binding site (PBS, nucleotide residues nucleotides 636 to 652), radiolabeled deoxyribonucleotide, dNTPs and reverse transcriptase. Briefly, the reaction was carried out in a volume of 50 μl containing 50 mM Tris HCl, pH 7.8, 50 mM KCl, 5 mM MgCl2, 1 mM DTT, 50 μM each of dATP, dCTP, dGTP, 50 nM dTTP, 1 μCi of [^3H] dTTP (70-90 Ci/mM) and 5 nM template/primer. The reaction was initiated by the addition of 10 nM RT. For compound screening, serially diluted test articles were added to the reaction followed by the addition of RT. The reaction mixture was incubated at 37° C. for 1 h, and then quenched by the addition of ice-cold trichloroacetic acid (TCA) to the final concentration of 10%. The plate was incubated at 4° C. for 1 h to precipitate the synthesized DNA, then rinsed 3-times with 10% TCA and 1 time with 70% ethanol. After addition of 25 μl scintillation fluid to completely dried wells, radioactivity is counted by MicroBeta scintillation counter. The reduction of radioactivity represents the potency of compound inhibition.

[1] = target: T2, recombinant HIV (pNL4-3) heterodimeric (p66/p51) Reverse Transcriptase (Human immunodeficiency virus type 1 group M subtype B, UniProt P12497); assay: reverse transcriptase assay; format: biochemical
T2 construct: purified recombinant HIV (pNL4-3) heterodimeric (p66/p51) Reverse Transcriptase (RT); purchased
Protocol: as §1

00KE_KER2008 (Subtype A) = assay: PBMC Acute Infection, 00KE_KER2008; format: cell-based, HIV; settings: Human immunodeficiency virus 1, PBMC, isolate 00KE-KER2008, subtype A, RT activity readout; for EC50: read-out: EC50; for EC90: read-out: EC90
Protocol: (§2) PHA-stimulated cells from at least two normal donors were pooled (i.e. mixed together), diluted in fresh medium to a final concentration of 1×10^6 cells/mL, and plated in the interior wells of a 96-well round bottom microplate at 50 μL/well (5×10^4 cells/well). Pooling of mononuclear cells from more than one donor was used to minimize the variability observed between individual donors in quantitative and qualitative differences in HIV infection and overall response to the PHA and IL-2 of primary lymphocyte populations. Each plate contained virus control wells (cells plus virus) and experimental wells (drug plus cells plus virus) of either 00KE_KER2008 (Subtype A), IIIB (Subtype B), or 98US_MSC5016 (Subtype C). Test drug dilutions were prepared at a 2×concentration and 100 μL of each concentration was placed in appropriate wells. Fifty μL of a predetermined dilution of virus stock was placed in each test well (final MOI≅0.1). After this period, cell-free supernatant samples were collected for analysis of reverse transcriptase (RT) activity with an RT assay. […] In the Table below SI50=CC50/EC50 and SI90=CC90/EC90.

IIIB (Subtype B) = assay: PBMC Acute Infection, IIIB; format: cell-based, HIV; settings: Human immunodeficiency virus 1, isolate IIIB, subtype B, RT activity readout; for EC50: read-out: EC50; for EC90: read-out: EC90
Protocol: as §2

98US_MSC5016 (Subtype C) = assay: PBMC Acute Infection, 98US_MSC5016; format: cell-based, HIV; settings: Human immunodeficiency virus 1, PBMC, isolate 98US_MSC5016, subtype C, RT activity readout; for EC50: read-out: EC50; for EC90: read-out: EC90
Protocol: as §2

topoisomerase I (TOP1) = target: T3, topoisomerase I (TOP1) (Homo sapiens, UniProt P11387); assay: topoisomerase I inhibition
T3 sequence (P11387 1-765): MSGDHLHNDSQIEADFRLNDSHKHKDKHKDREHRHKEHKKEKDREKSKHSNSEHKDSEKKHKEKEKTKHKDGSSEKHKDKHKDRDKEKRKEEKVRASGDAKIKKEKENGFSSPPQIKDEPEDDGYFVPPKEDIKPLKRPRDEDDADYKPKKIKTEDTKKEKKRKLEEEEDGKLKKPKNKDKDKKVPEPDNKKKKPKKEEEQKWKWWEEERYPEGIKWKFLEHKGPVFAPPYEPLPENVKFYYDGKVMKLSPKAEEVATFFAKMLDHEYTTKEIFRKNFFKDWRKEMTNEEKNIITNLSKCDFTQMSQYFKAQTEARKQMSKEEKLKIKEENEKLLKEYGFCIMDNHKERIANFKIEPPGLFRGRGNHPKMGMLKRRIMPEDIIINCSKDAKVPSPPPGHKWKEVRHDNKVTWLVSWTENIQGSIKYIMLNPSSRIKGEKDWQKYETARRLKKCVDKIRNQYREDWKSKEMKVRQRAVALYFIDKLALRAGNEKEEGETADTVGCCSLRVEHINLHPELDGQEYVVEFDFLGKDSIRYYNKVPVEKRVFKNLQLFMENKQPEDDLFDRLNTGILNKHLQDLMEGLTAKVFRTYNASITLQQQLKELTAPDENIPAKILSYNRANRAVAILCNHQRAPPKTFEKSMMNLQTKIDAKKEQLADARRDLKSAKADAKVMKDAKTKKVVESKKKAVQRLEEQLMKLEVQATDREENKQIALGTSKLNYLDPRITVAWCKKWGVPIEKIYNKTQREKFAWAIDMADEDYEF

## CCc1c2c(nc3ccc(N)cc13)-c1cc3c(c(=O)n1C2)CNC(=O)[C@]3(O)CC [Compound O5-SN, (S)-9-Amino-4,11-diethyl-4-hydroxy-1,2-dihydroquinolino[2′,3′:3,4]pyrrolo[1,2-b][2,7]naphthyridine-3,14(4H,12H)-dione]
HIV-1 protease
  IC50: > 100000 nM
  activity against HIV protease (result in words): inactive
[1]
  IC50: > 100000 nM
  activity against HIV reverse transcriptase (result in words): inactive
00KE_KER2008 (Subtype A)
  EC50: 6 nM
  EC90: 18 nM
IIIB (Subtype B)
  EC50: 8 nM
  EC90: 25 nM
98US_MSC5016 (Subtype C)
  EC50: 6 nM
  EC90: 20 nM
Topoisomerase I (TOP1)
  inhibition of topoisomerase I (TOP1) (result in words): do not inhibit

## CCc1c2c(nc3ccc(O)cc13)-c1cc3c(c(=O)n1C2)CNC(=O)[C@]3(O)CC [SN38-L, (S)-4,11-Diethyl-4,9-dihydroxy-1,2-dihydroquinolino[2′,3′:3,4]pyrrolo[1,2-b][2,7]naphthyridine-3,14(4H,12H)-dione]
HIV-1 protease
  IC50: > 100000 nM
  activity against HIV protease (result in words): inactive
[1]
  IC50: > 100000 nM
  activity against HIV reverse transcriptase (result in words): inactive
00KE_KER2008 (Subtype A)
  EC50: 4 nM
  EC90: 15 nM
IIIB (Subtype B)
  EC50: 10 nM
  EC90: 28 nM
98US_MSC5016 (Subtype C)
  EC50: 4 nM
  EC90: 16 nM
Topoisomerase I (TOP1)
  inhibition of topoisomerase I (TOP1) (result in words): do not inhibit
